According to patent publication US20220257620A1, “USE OF CERTAIN PHOSPHATIDYLCHOLINES CONTAINING LONG CHAIN POLYUNSATURATED FATTY ACIDS AS NEUROPROTECTIVE AGENTS” (KANNALIFE SCIENCES, INC., priority 2019, published 2022):

Key:
[1] = test system: dissociated hippocampal cultures (primary neurons); test: Neuronal viability assay (CFDA), neuroprotection from 30 mM ethanol; format: cell-based, rat; conditions: Table 3, 5 hour test period, co-treatment with 30 mM ethanol; for EC50: read-out: CFDA (EC50 + SE)
Text: Pre-coated poly-D-lysine coated plates will be used because of the adherence and survival of hippocampal neurons and glia on this matrix support.
Carboxyfluorescein (CFDA) was used a vital stain for all neuroprotection studies. With the use of the CytoFluor fluorimeter, the CFDA assay was employed to assess the viability of neurons. […] Neuronal specificity is obtained relative to astrocytes because the cleaved dye is extruded extracellularlly by glia with time, while dye in neurons remains intracellular.

[2] = test system: dissociated hippocampal cultures; test: Cell death assay (propidium iodide), protection from 30 mM ethanol; format: cell-based, rat; conditions: Table 3, 5 hour test period, co-treatment with 30 mM ethanol; for IC50: read-out: Propidium Iodide (IC50 + SE)

Row | Compound | EC50 [1] | IC50 [2] | CFDA (EC50 + SE) [1] | Propidium Iodide (IC50 + SE) [2]
1 | CCCCC/C=C\C/C=C\CCCCCCCC(=O)OCC(COP(=O)([O-])OCC[N+](C)(C)C)OC(=O)CCCCCCC/C=C\C/C=C\CCCCC (stereo not shown) [PC 18:2-18:2, 1,2-dilinoleoyl-phosphatidylcholine] | 0.067 ± 0.022 nM | 0.044 ± 0.015 nM | – | –
2 | CC/C=C\C/C=C\C/C=C\CCCCCCCC(=O)OC[C@H](COP(=O)([O-])OCC[N+](C)(C)C)OC(=O)CCCCCCC/C=C\C/C=C\C/C=C\CC [PC 18:3-18:3, 1,2-dilinolenoyl-phosphatidylcholine] | 0.202 ± 0.022 nM | 0.204 ± 0.088 nM | – | –
3 | CCCCC/C=C\C/C=C\C/C=C\C/C=C\CCCC(=O)OC[C@H](COP(=O)([O-])OCC[N+](C)(C)C)OC(=O)CCC/C=C\C/C=C\C/C=C\C/C=C\CCCCC [PC 20:4-20:4, 1,2-diarachidonyl-phosphatidylcholine] | 0.001 ± 8e-05 nM | 0.0012 ± 0.00012 nM | – | –
4 | CC/C=C\C/C=C\C/C=C\C/C=C\C/C=C\C/C=C\CCC(=O)OC[C@H](COP(=O)([O-])OCC[N+](C)(C)C)OC(=O)CC/C=C\C/C=C\C/C=C\C/C=C\C/C=C\C/C=C\CC [PC 22:6-22:6] | 0.283 ± 0.046 nM | 0.21 ± 0.053 nM | – | –
5 | PC 16:0-18:2 [reference compound] | – | – | Inactive | Inactive
